# Source: patent US20140309296A1, “BUDIODARONE FORMULATIONS” (Armetheon, Inc., priority 2013, published 2014)
# Values joined by “and” are separate entries in the source; they are usually repeats but may differ in a detail not shown here. Identical values can stand only once. Like-named read-outs stand apart in the source and are kept apart here.
# Assays:
# [1] = system: patients with paroxysmal atrial fibrillation (PAF); conditions: cited from earlier work
# [2] = system: subjects with paroxysmal atrial fibrillation who had implanted pacemakers; conditions: cited from earlier work
# [3] = target: cytochrome P450 2C9 (CYP2C9) (Homo sapiens, UniProt P11712); conditions: cited from earlier work
# [4] = Lower-limit ratio for soluble benzyl alcohol and budiodarone compositions in water (Example 6); assay type: physicochemical; conditions: 25, 50 and 100 mg/ml, introduced ratios 0.8 to 4.9, 24 hours in the dark, room temperature
# Experimental: Three series of 20-ml screw-cap glass vials were prepared as described in Tables 5 to 7. Budiodarone tartrate was added to the empty vials, followed by water, and then benzyl alcohol was added. The vials were capped and the mixtures were vortexed for three times 10 seconds. The vials were then left in the dark for 24 hours and were then analyzed as described above using HPLC Conditions 2 and 3.
# In FIG. 4, the approximately 5/1 lower-limit molar ratio is constant over a wide range of budiodarone concentrations, at least between budiodarone concentrations of 25 mg/ml and 100 mg/ml. The resulting ratios in solution, following 24-hour in the dark, were calculated from HPLC analysis data and were plotted versus the actual ratios introduced into the vials. Each point represents the mean findings of the three concentrations (25 mg/ml, 50 mg/ml, and 100 mg/ml)+/−standard deviation. […] This association takes place even when the original ratio introduced into the vial is as low as 0.8/1. Presumably the 5/1 ratio is an optimum molar ratio allowing for the optimum balance of repulsive ionic forces and attractive van der Waals forces between water molecules and the budiodarone/benzyl alcohol complex. […]
# [5] = Low ratio of benzyl alcohol to budiodarone in water and 5% dextrose solution, stability (Example 9); assay type: physicochemical; conditions: 2.14/1 molar ratio, 25 mg/ml, room temperature
# Experimental: The methanol was evaporated at 36° C. under partial vacuum (30 mmHg) to yield a thin film. To this residue was added 5 ml of water. The sample was then vortexed and a clear 25 mg/ml solution of budiodarone tartrate was obtained. A small aliquot was diluted 25 times with methanol and analyzed by HPLC (Sample 1). To the flask was then added 250 mg of D-(+)-glucose (also known as dextrose), resulting in a clear solution of 25 mg/ml budiodarone tartrate in 5% dextrose (D5W). A small sample was analyzed by HPLC (Sample 2).
# Sample 2 is then analyzed over time to check physical and/or chemical stability in solution (Table 9).
# [6] = cited from earlier work
# [7] = pre-clinical safety testing; cited from earlier work
# [8] = system: sodium, potassium, and calcium ion channels; conditions: animals; cited from earlier work
# [9] = Solubility of budiodarone tartrate in different co-solvents (Example 5); assay type: physicochemical; conditions: co-solvent 3.6% to 14.4% in water, 25 mg/ml, 24 hours
# Experimental: Co-solvents that are routinely used in injectable pharmaceutical preparations were studied. These were dimethylacetamide (DMA), dimethylsulfoxide (DMSO), ethanol (EtOH), and N-methylpyrrolidone (NMP). Samples were prepared as described in Table 4 below.
# Samples were prepared by mixing all three components together as in previous examples, using a vortexer at maximum speed for 3×10 sec. Samples were then left in the dark for 24 hours and analyzed by HPLC following centrifugation to precipitate any insoluble material.
# [10] = 600 mg BID, Treatment Months 1-3, ITT
# [11] = 600 mg BID, Treatment Months 1-3, mITT
# Chain of cytochrome P450 2C9 (CYP2C9) (P11712 whole entry): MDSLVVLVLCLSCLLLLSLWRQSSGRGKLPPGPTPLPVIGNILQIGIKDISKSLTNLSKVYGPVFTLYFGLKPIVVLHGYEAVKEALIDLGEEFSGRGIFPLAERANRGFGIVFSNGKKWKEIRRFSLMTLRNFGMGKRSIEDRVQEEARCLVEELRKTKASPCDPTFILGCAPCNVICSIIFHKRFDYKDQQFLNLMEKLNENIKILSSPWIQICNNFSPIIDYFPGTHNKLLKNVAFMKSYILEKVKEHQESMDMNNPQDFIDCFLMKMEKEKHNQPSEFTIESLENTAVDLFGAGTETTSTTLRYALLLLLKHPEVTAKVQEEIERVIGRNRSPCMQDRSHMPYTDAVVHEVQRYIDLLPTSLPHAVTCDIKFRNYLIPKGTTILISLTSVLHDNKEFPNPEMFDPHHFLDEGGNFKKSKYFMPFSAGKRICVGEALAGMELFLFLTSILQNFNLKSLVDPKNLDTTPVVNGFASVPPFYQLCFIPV
smiles,measurement,setting,value
"CC[C@H](C)OC(=O)Cc1oc2ccccc2c1C(=O)c1cc(I)c(OCCN(CC)CC)c(I)c1 [budiodarone, (1S)-1-methylpropyl 2-(3-{4-[2-(diethylamino)ethoxy]-3,5-diiodobenzoyl}benzofuran-2-yl)acetate]",decrease in AFB,"[1]; 200 mg BID, mITT population, not statistically significant",10%
same,median percent reduction from baseline in AT/AF burden,"[1]; 400 mg BID, Treatment Months 1-3, ITT population",54%
same,median percent reduction from baseline in AT/AF burden,"[1]; 400 mg BID, Treatment Months 1-3, mITT population",54%
same,median percent reduction in AT/AF burden,"[1]; 600 mg BID, Treatment Month 3, ITT population, listed as ATI-2042",80% and 83%
same,median percent reduction in AT/AF burden,"[1]; 600 mg BID, Treatment Month 3, mITT population",83%
same,median percent reduction from baseline in AT/AF burden,"[1]; 600 mg BID, Treatment Months 1-3, ITT population",74%
same,median percent change from baseline in duration of AT/AF episodes,[1]; [10],−51.3%
same,median percent change from baseline in the number of AT/AF episodes,[1]; [10],−52.9%
same,median percent increase in the duration of NSR,[1]; [10],208.8%
same,median percent reduction from baseline in AT/AF burden,"[1]; 600 mg BID, Treatment Months 1-3, mITT population",75%
same,median percent change from baseline in duration of AT/AF episodes,[1]; [11],−51.3%
same,median percent change from baseline in the number of AT/AF episodes,[1]; [11],−62.1%
same,median percent increase in the duration of NSR,[1]; [11],241.8%
same,"decrease in number of AT/AF episodes (median percent change from baseline, FIG. 12)","[1]; 600 mg BID, all three treatment months",more than 60%
same,decrease in duration of episodes (FIG. 12),"[1]; 600 mg BID, treatment month 1",more than 50%
same,decrease in duration of episodes (FIG. 12),"[1]; 600 mg BID, treatment month 2",more than 70%
same,decrease in duration of episodes (FIG. 12),"[1]; 600 mg BID, treatment month 3",~70%
same,mean episode duration (FIG. 13),"[1]; 600 mg, down from nearly 24",less than 1 hour
same,median AF episode duration,"[1]; 600 mg, month 3",0
same,reduction of number and duration of AF episodes below baseline (FIG. 12),[1]; 600 mg,about 70%
same,patients a lot or completely satisfied with the test medication (Patient GCI Scale),"[1]; ITT population, dose group not stated",60.0%
same,patients reporting a lot of improvement or complete relief (Patient GCI Scale),[1]; dose group not stated,46.7%
same,AFB after washout,"[1]; each of the three dose groups, one-month washout period",returned to essentially the baseline values
same,mean AFB (SD),[2]; 200 mg bid,5.2 ± 4.2%
same,mean AFB (SD),[2]; 400 mg bid,5.2+5.2%
same,mean AFB (SD),[2]; 600 mg bid,2.8+3.4%
same,mean AFB (SD),[2]; 800 mg bid,1.5 ± 0.5%
same,decrease in AFB,[2]; at all doses (200 to 800 mg bid),at least 70%
same,Mean episode duration (SD),[2]; p2 (200 mg bid),1.7+2.5 h
same,relative reduction (RR) in AFB from baseline,[2]; p2 (200 mg bid),71.2 ± 31.3%
same,Mean episode duration (SD),[2]; p3 (400 mg bid),0.6+0.7 h
same,relative reduction (RR) in AFB from baseline,[2]; p3 (400 mg bid),71.7 ± 20.6%
same,Mean episode duration (SD),[2]; p4 (600 mg bid),0.1+0.2 h
same,relative reduction (RR) in AFB from baseline,[2]; p4 (600 mg bid),79.9 ± 26.4%
same,Mean episode duration (SD),[2]; p5 (800 mg bid),0.5+0.7 h
same,relative reduction (RR) in AFB from baseline,[2]; p5 (800 mg bid),86.8 ± 9.8%
same,number of AF episodes,[2]; treatment periods and washout,increased initially
same,Mean episode duration (SD),[2]; washout,2.4+3.0 h
same,mean AFB (SD),[2]; washout,11.7+14.0%
same,inhibition of CYP2C9,[3],inhibitor
same,lower-limit molar ratio of benzyl alcohol to budiodarone in solution,[4],approximately 5/1
same,time for which the low molar ratio is stable in D5W,[5],about 120 hours
same,"PR interval, reduction from baseline",[6]; 200 mg bid,16.6+23.9%
same,"PR interval, reduction from baseline",[6]; 400 mg bid,11.4+22.6%
same,"PR interval, reduction from baseline",[6]; 600 mg bid,27.0+32.1%
same,"PR interval, reduction from baseline",[6]; 800 mg bid,35.1 ± 30.9%
same,"proarrhythmia, clinical hypothyroidism, or hyperthyroidism",[6]; 200 to 800 mg bid,no cases
same,serious AEs,[6]; 200 to 800 mg bid,no serious AEs related to study drug
same,tolerability,[6]; 200 to 800 mg bid,generally well tolerated
same,"changes in HR, QRS, QT, or QTc",[6]; between baseline and dosing or washout,no significant changes
same,thyroid-stimulating hormone,"[6]; three patients, outside the normal range",dose-responsive increases
same,"PR interval, reduction from baseline",[6]; washout,30.7 ± 24.3%
same,findings in canine testes,[7],Non-specific but potentially toxic findings
same,atrial effects,[8],increased St-A and A-H intervals
same,"inhibition of sodium, potassium, and calcium ion channels",[8],inhibition comparable with amiodarone
same,left and right atrial refractoriness,[8],increased left and right atrial refractoriness comparable with amiodarone
same,ventricular effects,[8],increased MAPD90 and QT-interval
same,"amount of solubilized budiodarone in the presence of DMA, DMSO, EtOH, or NMP",[9],not significantly different from the amount solubilized in water alone
